Reference: patent US11225491B2, “Thiazolo-pyrimidine HIV-1 reverse transcriptase inhibitor, preparation method therefor, and uses thereof” (priority 2018, dated 2022)
Like-named read-outs stand apart in the source and are kept apart here.

Tests used:
WT HIV-1 strain (IIIB) = assay: Anti-HIV activity in MT-4 cells, MTT method, WT strain IIIB; format: cell-based; settings: for SI IIIB: selectivity index, ratio of CC50/EC50, strain IIIB
[1] = system: HIV-1 K103N+Y181C (RES056); assay: microbe, parasite or virus in culture; format: cell-based; settings: for EC50: Human immunodeficiency virus 1, MT4, read-out: EC50 RES056; for SI RES056: selectivity index, ratio of CC50/EC50, strain RES056
[2] = system: mutant HIV-1 strain L100I; assay: microbe, parasite or virus in culture; format: cell-based; settings: Human immunodeficiency virus 1, MT4, read-out: EC50 L100I
[3] = system: mutant HIV-1 strain K103N; assay: microbe, parasite or virus in culture; format: cell-based; settings: Human immunodeficiency virus 1, MT4, read-out: EC50 K103N
[4] = system: mutant HIV-1 strain Y181C; assay: microbe, parasite or virus in culture; format: cell-based; settings: Human immunodeficiency virus 1, MT4, read-out: EC50 Y181C
[5] = system: mutant HIV-1 strain Y188L; assay: microbe, parasite or virus in culture; format: cell-based; settings: Human immunodeficiency virus 1, MT4, read-out: EC50 Y188L
[6] = system: mutant HIV-1 strain E138K; assay: microbe, parasite or virus in culture; format: cell-based; settings: Human immunodeficiency virus 1, MT4, read-out: EC50 E138K
[7] = system: mutant HIV-1 strain F227L + V106A; assay: microbe, parasite or virus in culture; format: cell-based; settings: Human immunodeficiency virus 1, MT4, read-out: EC50 F227L + V106A
in vitro = settings: human
[8] = Cytotoxicity in mock-infected MT-4 cells, MTT method; settings: human
[9] = Human immunodeficiency virus 1, MT4, 50% protection of MT-4 cell cultures against HIV-1-induced cytopathic effect, MTT method, strain IIIB, read-out: EC50 IIIB

Cc1cc(C#N)cc(C)c1Oc1nc(NC2CCN(Cc3ccc(S(C)(=O)=O)cc3)CC2)nc2ncsc12 [SZ6, 3,5-dimethyl-4-((5-((1-(4-(methylsulfonyl)benzyl)piperidin-4-yl)amino)thiazolo[4,5-d]pyrimidin-7-yl)oxy)benzonitrile]
EC50 (WT HIV-1 strain (IIIB); [9]): 2.2 ± 0.6 nM | SI IIIB (WT HIV-1 strain (IIIB)): 4816 | EC50 [1]: 27.4 ± 0.3 nM | SI RES056 [1]: 400 | EC50 [2]: 3.2 ± 0.7 nM | EC50 [3]: 3.8 ± 2.8 nM | EC50 [4]: 7 ± 0.9 nM | EC50 [5]: 10.7 nM | EC50 [6]: 6.1 ± 1.1 nM | EC50 [7]: 15.4 ± 2.3 nM | CC50 at 5 days (in vitro): 10900 ± 2750 nM

Cc1cc(C#N)cc(C)c1Oc1nc(NC2CCN(Cc3ccc(S(=O)(=O)N4CCOCC4)cc3)CC2)nc2ncsc12 [SZ4]
EC50 (WT HIV-1 strain (IIIB); [9]): 3.7 ± 0.8 nM | SI IIIB (WT HIV-1 strain (IIIB)): 4665 | EC50 [1]: 94.4 ± 0.5 nM | SI RES056 [1]: 187 | CC50 at 5 days (in vitro): 17600 ± 2370 nM

Cc1cc(C#N)cc(C)c1Oc1nc(NC2CCN(Cc3ccc([N+](=O)[O-])cc3)CC2)nc2ncsc12 [SZ8, 3,5-dimethyl-4-((5-((1-(4-nitrobenzyl)piperidin-4-yl)amino)thiazolo[4,5-d]pyrimidin-7-yl)oxy)benzonitrile]
EC50 (WT HIV-1 strain (IIIB); [9]): 3.4 ± 0.2 nM | SI IIIB (WT HIV-1 strain (IIIB)): 1482 | EC50 [1]: 129 ± 4.5 nM | SI RES056 [1]: 40 | CC50 at 5 days (in vitro): 5170 ± 134 nM

Cc1ccnc2c1NC(=O)c1cccnc1N2C1CC1 [NVP, Nevirapine, reference compound]
EC50 (WT HIV-1 strain (IIIB); Human immunodeficiency virus 1, IIIB, MT4, read-out: EC50 IIIB): 163 ± 41.2 nM | EC50 [1]: > 9510 nM | CC50 at 5 days [8]: > 9510 nM

Cc1cc(C#N)cc(C)c1Oc1nc(NC2CCN(Cc3cccc(C(N)=O)c3)CC2)nc2ncsc12 [SZ9]
EC50 (WT HIV-1 strain (IIIB); [9]): 1.3 nM | SI IIIB (WT HIV-1 strain (IIIB)): 20099 | EC50 [1]: 559 ± 8.5 nM | SI RES056 [1]: 49 | CC50 at 5 days (in vitro): 27300 ± 965 nM

Cc1cc(C#N)cc(C)c1Oc1nc(NC2CCN(Cc3ccc(C(N)=O)cc3)CC2)nc2ncsc12 [SZ5]
EC50 (WT HIV-1 strain (IIIB); [9]): > 15600 nM | SI IIIB (WT HIV-1 strain (IIIB)): <1 | EC50 [1]: > 15600 nM | SI RES056 [1]: <1 | CC50 at 5 days (in vitro): 15500 ± 2840 nM

CNS(=O)(=O)c1ccc(CN2CCC(Nc3nc(Oc4c(C)cc(C#N)cc4C)c4scnc4n3)CC2)cc1 [SZ2]
EC50 (WT HIV-1 strain (IIIB); [9]): 4.8 ± 0.1 nM | SI IIIB (WT HIV-1 strain (IIIB)): 2828 | EC50 [1]: 19.4 ± 13.1 nM | SI RES056 [1]: 710 | EC50 [2]: 8.7 ± 0.3 nM | EC50 [3]: 5.1 ± 1 nM | EC50 [4]: 7.3 ± 0.1 nM | EC50 [5]: 14 ± 2 nM | EC50 [6]: 9.2 ± 0.7 nM | EC50 [7]: 22.6 ± 3.8 nM | CC50 at 5 days (in vitro): 13700 ± 3470 nM

Cc1cc(C#N)cc(C)c1Oc1nc(NC2CCN(Cc3ccc(S(C)(=O)=O)cc3)CC2)nc2scnc12 [TZ3, 3,5-dimethyl-4-((5-((1-(4-(methylsulfonyl)benzyl)piperidin-4-yl)amino)thiazolo[5,4-d]pyrimidin-7-yl)oxy)benzonitrile]
EC50 (WT HIV-1 strain (IIIB); [9]): 2.3 ± 0.7 nM | SI IIIB (WT HIV-1 strain (IIIB)): 6212 | EC50 [1]: 18.1 ± 1.1 nM | SI RES056 [1]: 791 | EC50 [2]: 5.6 ± 0.7 nM | EC50 [3]: 3.3 ± 0.3 nM | EC50 [4]: 7.5 ± 0.6 nM | EC50 [5]: 7.1 ± 0.2 nM | EC50 [6]: 6.6 ± 0.1 nM | EC50 [7]: 15.2 ± 3.4 nM | CC50 at 5 days (in vitro): 14300 ± 5500 nM

Cc1cc(C#N)cc(C)c1Oc1nc(NC2CCN(Cc3ccc(S(N)(=O)=O)cc3)CC2)nc2ncsc12 [SZ1]
EC50 (WT HIV-1 strain (IIIB); [9]): 2.2 ± 0.9 nM | SI IIIB (WT HIV-1 strain (IIIB)): 11071 | EC50 [1]: 26.1 ± 1.5 nM | SI RES056 [1]: 961 | EC50 [2]: 7.8 ± 0.2 nM | EC50 [3]: 3.9 ± 1.9 nM | EC50 [4]: 6.7 ± 1.2 nM | EC50 [5]: 11.4 ± 2.3 nM | EC50 [6]: 6.5 ± 1.5 nM | EC50 [7]: 18.8 ± 4.5 nM | CC50 at 5 days (in vitro): 25100 ± 749 nM

Cc1cc(C#N)cc(C)c1Oc1nc(NC2CCN(Cc3ccncc3)CC2)nc2ncsc12 [SZ7, 3,5-dimethyl-4-((5-((1-(pyridin-4-ylmethyl)piperidin-4-yl)amino)thiazolo[4,5-d]pyrimidin-7-yl)oxy)benzonitrile]
EC50 (WT HIV-1 strain (IIIB); [9]): 1.8 ± 0.4 nM | SI IIIB (WT HIV-1 strain (IIIB)): 16818 | EC50 [1]: 24.7 ± 1.9 nM | SI RES056 [1]: 1227 | EC50 [2]: 5.6 ± 2.2 nM | EC50 [3]: 1.9 ± 0.6 nM | EC50 [4]: 5.8 ± 2.2 nM | EC50 [5]: 7.7 ± 1 nM | EC50 [6]: 5.5 ± 1.2 nM | EC50 [7]: 32.9 ± 23.8 nM | CC50 at 5 days (in vitro): 30300 ± 760 nM

Cc1cc(C#N)cc(C)c1Oc1nc(NC2CCN(Cc3ccncc3)CC2)nc2scnc12 [TZ4, 3,5-dimethyl-4-((5-((1-(pyridin-4-ylmethyl)piperidin-4-yl)amino)thiazolo[5,4-d]pyrimidin-7-yl)oxy)benzonitrile]
EC50 (WT HIV-1 strain (IIIB); [9]): 2.7 nM | SI IIIB (WT HIV-1 strain (IIIB)): 10447 | EC50 [1]: 26.8 ± 0.1 nM | SI RES056 [1]: 1074 | EC50 [2]: 13.7 ± 7.1 nM | EC50 [3]: 3.3 ± 2.3 nM | EC50 [4]: 5.8 ± 0.1 nM | EC50 [5]: 6.6 ± 1 nM | EC50 [6]: 6.5 ± 0.3 nM | EC50 [7]: 30.9 ± 6.2 nM | CC50 at 5 days (in vitro): 28700 ± 489 nM

Cc1cc(C#N)cc(C)c1Oc1nc(NC2CCN(Cc3ccc(S(N)(=O)=O)cc3)CC2)nc2scnc12 [TZ1]
EC50 (WT HIV-1 strain (IIIB); [9]): 1.6 ± 0.2 nM | SI IIIB (WT HIV-1 strain (IIIB)): 14194 | EC50 [1]: 18.3 ± 2.3 nM | SI RES056 [1]: 1265 | EC50 [2]: 9.6 ± 1.5 nM | EC50 [3]: 1.9 ± 0.1 nM | EC50 [4]: 6.5 ± 1 nM | EC50 [5]: 10.8 ± 0.6 nM | EC50 [6]: 7.9 ± 0.1 nM | EC50 [7]: 16 ± 4.6 nM | CC50 at 5 days (in vitro): 23200 ± 1750 nM

Cc1cc(C#N)cc(C)c1Oc1nc(Nc2ccc(C#N)cc2)nc(N)c1Br [ETR, Etravirine, reference compound]
EC50 (WT HIV-1 strain (IIIB); [9]): 5.1 ± 0.8 nM | EC50 [1]: 45.4 ± 15.5 nM | EC50 [2]: 6 ± 1.5 nM | EC50 [4]: 14.5 ± 8.2 nM | EC50 [5]: 20.4 ± 8.6 nM | EC50 [6]: 9.7 ± 6.9 nM | EC50 [7]: 19.7 ± 7.3 nM | CC50 at 5 days (in vitro): > 4590 nM

Cc1cc(C#N)cc(C)c1Oc1nc(NC2CCN(Cc3ccc(S(=O)(=O)NC4CC4)cc3)CC2)nc2ncsc12 [SZ3]
EC50 (WT HIV-1 strain (IIIB); [9]): 5 ± 0.2 nM | SI IIIB (WT HIV-1 strain (IIIB)): 4564 | EC50 [1]: 41.3 ± 5.2 nM | SI RES056 [1]: 561 | CC50 at 5 days (in vitro): 23200 ± 4520 nM

Cc1cc(C#N)cc(C)c1Oc1nc(NC2CCN(Cc3ccc([N+](=O)[O-])cc3)CC2)nc2scnc12 [TZ5, 3,5-dimethyl-4-((5-((1-(4-nitrobenzyl)piperidin-4-yl)amino)thiazolo[5,4-d]pyrimidin-7-yl)oxy)benzonitrile]
EC50 (WT HIV-1 strain (IIIB); [9]): 8.2 ± 1.9 nM | SI IIIB (WT HIV-1 strain (IIIB)): 687 | EC50 [1]: 126 ± 16 nM | SI RES056 [1]: 45 | CC50 at 5 days (in vitro): 5680 ± 423 nM

Cc1cc(C#N)cc(C)c1Oc1nc(NC2CCN(Cc3ccc(C(N)=O)cc3)CC2)nc2scnc12 [TZ2]
EC50 (WT HIV-1 strain (IIIB); [9]): 1.6 ± 0.1 nM | SI IIIB (WT HIV-1 strain (IIIB)): 16412 | EC50 [1]: 28.1 ± 13 nM | SI RES056 [1]: 965 | EC50 [2]: 6.3 ± 2.8 nM | EC50 [3]: 1.6 ± 0.4 nM | EC50 [4]: 5.1 ± 0.1 nM | EC50 [5]: 7.2 ± 0.2 nM | EC50 [6]: 5.2 ± 0.8 nM | EC50 [7]: 20.3 ± 2.6 nM | CC50 at 5 days (in vitro): 27100 ± 1300 nM

Cc1cc(C#N)cc(C)c1Oc1nc(NC2CCN(Cc3cccc(C(N)=O)c3)CC2)nc2scnc12 [TZ6]
EC50 (WT HIV-1 strain (IIIB); [9]): 3 ± 0.6 nM | SI IIIB (WT HIV-1 strain (IIIB)): 9565 | EC50 [1]: 222 ± 47 nM | SI RES056 [1]: 130 | CC50 at 5 days (in vitro): 28800 ± 634 nM
